This note sets out measurements from patent US20140155397A1, “EMT SIGNATURES AND PREDICTIVE MARKERS AND METHOD OF USING THE SAME” (Board of Regents, priority 2011, published 2014).

Like-named read-outs stand apart in the source and are kept apart here.

The target of assay [1] is T1, MER (Homo sapiens, UniProt Q12866).
T1 sequence (Q12866 21-999): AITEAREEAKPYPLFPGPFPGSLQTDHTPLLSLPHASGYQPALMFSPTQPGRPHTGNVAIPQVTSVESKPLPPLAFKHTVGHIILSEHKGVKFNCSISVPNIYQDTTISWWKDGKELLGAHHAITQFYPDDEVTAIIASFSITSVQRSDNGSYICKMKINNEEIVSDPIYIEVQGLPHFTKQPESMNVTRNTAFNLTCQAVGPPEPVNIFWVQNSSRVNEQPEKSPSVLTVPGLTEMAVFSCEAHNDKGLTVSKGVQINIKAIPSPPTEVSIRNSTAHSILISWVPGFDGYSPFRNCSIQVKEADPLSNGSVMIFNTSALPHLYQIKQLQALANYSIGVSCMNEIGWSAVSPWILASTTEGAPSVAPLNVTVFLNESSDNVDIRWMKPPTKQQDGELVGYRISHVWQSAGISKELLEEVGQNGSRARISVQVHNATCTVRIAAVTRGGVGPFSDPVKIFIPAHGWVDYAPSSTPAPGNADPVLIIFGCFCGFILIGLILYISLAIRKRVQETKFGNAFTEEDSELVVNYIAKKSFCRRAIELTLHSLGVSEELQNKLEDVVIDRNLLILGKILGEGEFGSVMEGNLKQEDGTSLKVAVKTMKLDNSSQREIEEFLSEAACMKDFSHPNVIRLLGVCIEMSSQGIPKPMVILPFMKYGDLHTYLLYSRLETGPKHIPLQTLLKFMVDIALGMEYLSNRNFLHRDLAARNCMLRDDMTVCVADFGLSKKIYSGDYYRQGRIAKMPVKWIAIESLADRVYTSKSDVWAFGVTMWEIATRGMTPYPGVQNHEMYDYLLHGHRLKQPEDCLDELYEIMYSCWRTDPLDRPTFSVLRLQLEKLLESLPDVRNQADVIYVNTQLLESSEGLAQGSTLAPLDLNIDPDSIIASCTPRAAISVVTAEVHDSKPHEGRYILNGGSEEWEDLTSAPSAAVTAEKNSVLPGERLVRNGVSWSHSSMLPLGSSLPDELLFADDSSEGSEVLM
The assay can be described thus: Protein kinase panel. Format: biochemical. From the text: (§1) Purified recombinant AXL kinase was used to screen a library of structures with appropriate drug-like scaffolds to identify potential inhibitors. Hits from the screen were confirmed and r analyzed by selection criteria including Lipinski rules. One pyrrolopyrimidine-based compound was selected for structure-activity relationship efforts. Optimization of this scaffold and subsequent evaluation led to the generation of compound SG1-7079 as the lead candidate inhibitor (FIG. 10). […] SGI-7079 was screened against a panel of protein kinases to determine both selectivity and biochemical potency.

For assay [2], the target named is TrkB (Homo sapiens, UniProt Q16620). Briefly: Protein kinase panel. It is filed as biochemical.
Description: as §1

In assay [3] the target is Flt1 (Homo sapiens, UniProt P17948). Briefly: Protein kinase panel. Format: biochemical.
Description: as §1

In assay [4] the target is Jak2 (Homo sapiens, UniProt O60674). Briefly: Protein kinase panel. It is filed as biochemical.
Description: as §1

In assay [5] the test system is Calu-1. Briefly: Proliferation, CellTiter-Glo Luminescent Cell Viability. Format: cell-based. The following applies: single agent. From the text: (§2) Average values were used for analysis as described. […] Chou T. C., et al., Quantitative Analysis of Dose-Effect Relationships: The Combined Effects of Multiple Drugs or Enzyme Inhibitors. Adv Enzyme Regul.
(ATP-based viability assays read luminescence as a measure of living cells.)

Assay [6] relates to H2882. The assay is described as above. It is filed as cell-based. The following applies: single agent.
Description: as §2

Assay [7] has as its system A549. The assay is described as above. Format: cell-based. The following applies: single agent.
Description: as §2

The subject of assay [8] is H157. Described as above. It is filed as cell-based. The conditions noted are these: single agent.
Description: as §2

The test system of assay [9] is H1299. Described as above. It is filed as cell-based. The following applies: single agent.
Description: as §2

The subject of assay [10] is H460. Described as above. It is filed as cell-based. The conditions noted are these: single agent.
Description: as §2

The target of assay [11] is T2, AXL (Homo sapiens, UniProt P30530).
T2 sequence (P30530 26-894): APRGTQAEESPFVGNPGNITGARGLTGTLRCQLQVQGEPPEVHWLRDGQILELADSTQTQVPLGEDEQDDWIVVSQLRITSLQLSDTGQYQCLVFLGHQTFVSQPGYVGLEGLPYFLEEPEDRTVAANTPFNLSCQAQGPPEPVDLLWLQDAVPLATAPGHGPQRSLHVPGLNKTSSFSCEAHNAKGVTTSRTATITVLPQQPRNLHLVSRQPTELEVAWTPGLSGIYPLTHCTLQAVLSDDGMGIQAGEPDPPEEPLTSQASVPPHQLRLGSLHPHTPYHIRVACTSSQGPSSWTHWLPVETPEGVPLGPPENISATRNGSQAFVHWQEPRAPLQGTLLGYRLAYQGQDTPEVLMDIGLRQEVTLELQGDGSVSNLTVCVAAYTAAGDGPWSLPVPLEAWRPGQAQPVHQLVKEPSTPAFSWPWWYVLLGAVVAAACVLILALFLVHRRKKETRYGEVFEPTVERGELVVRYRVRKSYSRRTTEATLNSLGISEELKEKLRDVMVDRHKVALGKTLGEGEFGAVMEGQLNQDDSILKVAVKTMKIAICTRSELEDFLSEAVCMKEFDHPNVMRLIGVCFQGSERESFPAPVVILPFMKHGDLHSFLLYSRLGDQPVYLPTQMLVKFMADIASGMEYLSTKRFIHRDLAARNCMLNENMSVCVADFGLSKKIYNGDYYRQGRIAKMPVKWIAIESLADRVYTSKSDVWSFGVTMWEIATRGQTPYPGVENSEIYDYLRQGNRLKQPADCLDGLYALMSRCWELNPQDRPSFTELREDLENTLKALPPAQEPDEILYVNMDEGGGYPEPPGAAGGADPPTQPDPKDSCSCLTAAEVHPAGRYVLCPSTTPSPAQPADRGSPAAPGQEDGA
The assay can be described thus: Gas6 ligand-induced tyrosine phosphorylation of human AXL expressed in HEK293T cells. Format: cell-based. Details: expressed in transfected cells; host or cells: HEK293T. The conditions noted are these: read-out: EC50, inhibition of Gas6 ligand-induced tyrosine phosphorylation of AXL.

Assay [12] has as its system Cells expressing high levels of Axl. The assay can be described thus: Proliferation of six mesenchymal cell lines expressing high levels of Axl (summary). Format: cell-based. The following applies: single agent.
Description: as §2

Jak2, sequence (O60674 whole entry, species assumed): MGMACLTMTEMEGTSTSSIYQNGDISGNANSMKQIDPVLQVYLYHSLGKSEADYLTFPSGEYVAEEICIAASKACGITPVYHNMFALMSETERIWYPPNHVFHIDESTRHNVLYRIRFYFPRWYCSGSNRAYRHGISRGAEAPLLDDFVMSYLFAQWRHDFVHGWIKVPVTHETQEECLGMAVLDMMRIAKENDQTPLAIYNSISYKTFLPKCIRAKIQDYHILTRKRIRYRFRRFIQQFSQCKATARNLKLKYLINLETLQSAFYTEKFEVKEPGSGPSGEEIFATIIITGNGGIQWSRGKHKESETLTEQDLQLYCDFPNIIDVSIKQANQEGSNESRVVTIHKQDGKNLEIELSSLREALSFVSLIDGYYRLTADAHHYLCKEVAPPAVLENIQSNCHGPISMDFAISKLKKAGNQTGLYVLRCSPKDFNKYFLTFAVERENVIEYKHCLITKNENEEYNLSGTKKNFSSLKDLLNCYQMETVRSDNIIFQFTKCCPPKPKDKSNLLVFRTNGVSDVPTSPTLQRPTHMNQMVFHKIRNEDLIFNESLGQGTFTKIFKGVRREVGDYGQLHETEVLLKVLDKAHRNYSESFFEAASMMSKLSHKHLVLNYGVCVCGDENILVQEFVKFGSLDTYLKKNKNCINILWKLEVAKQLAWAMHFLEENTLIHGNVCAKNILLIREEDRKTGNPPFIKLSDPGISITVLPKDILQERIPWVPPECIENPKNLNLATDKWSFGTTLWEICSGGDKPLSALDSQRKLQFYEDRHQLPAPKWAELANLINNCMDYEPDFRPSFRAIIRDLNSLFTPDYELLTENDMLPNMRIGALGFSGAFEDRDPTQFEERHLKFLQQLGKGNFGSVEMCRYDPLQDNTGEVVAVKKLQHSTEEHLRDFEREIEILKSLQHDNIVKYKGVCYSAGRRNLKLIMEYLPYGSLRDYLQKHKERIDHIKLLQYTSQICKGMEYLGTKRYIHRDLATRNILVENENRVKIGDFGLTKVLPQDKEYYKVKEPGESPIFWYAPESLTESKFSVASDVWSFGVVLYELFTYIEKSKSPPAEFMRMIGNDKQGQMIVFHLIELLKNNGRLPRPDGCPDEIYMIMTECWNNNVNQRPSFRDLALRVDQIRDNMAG
Flt1, sequence (P17948 27-1338, species assumed): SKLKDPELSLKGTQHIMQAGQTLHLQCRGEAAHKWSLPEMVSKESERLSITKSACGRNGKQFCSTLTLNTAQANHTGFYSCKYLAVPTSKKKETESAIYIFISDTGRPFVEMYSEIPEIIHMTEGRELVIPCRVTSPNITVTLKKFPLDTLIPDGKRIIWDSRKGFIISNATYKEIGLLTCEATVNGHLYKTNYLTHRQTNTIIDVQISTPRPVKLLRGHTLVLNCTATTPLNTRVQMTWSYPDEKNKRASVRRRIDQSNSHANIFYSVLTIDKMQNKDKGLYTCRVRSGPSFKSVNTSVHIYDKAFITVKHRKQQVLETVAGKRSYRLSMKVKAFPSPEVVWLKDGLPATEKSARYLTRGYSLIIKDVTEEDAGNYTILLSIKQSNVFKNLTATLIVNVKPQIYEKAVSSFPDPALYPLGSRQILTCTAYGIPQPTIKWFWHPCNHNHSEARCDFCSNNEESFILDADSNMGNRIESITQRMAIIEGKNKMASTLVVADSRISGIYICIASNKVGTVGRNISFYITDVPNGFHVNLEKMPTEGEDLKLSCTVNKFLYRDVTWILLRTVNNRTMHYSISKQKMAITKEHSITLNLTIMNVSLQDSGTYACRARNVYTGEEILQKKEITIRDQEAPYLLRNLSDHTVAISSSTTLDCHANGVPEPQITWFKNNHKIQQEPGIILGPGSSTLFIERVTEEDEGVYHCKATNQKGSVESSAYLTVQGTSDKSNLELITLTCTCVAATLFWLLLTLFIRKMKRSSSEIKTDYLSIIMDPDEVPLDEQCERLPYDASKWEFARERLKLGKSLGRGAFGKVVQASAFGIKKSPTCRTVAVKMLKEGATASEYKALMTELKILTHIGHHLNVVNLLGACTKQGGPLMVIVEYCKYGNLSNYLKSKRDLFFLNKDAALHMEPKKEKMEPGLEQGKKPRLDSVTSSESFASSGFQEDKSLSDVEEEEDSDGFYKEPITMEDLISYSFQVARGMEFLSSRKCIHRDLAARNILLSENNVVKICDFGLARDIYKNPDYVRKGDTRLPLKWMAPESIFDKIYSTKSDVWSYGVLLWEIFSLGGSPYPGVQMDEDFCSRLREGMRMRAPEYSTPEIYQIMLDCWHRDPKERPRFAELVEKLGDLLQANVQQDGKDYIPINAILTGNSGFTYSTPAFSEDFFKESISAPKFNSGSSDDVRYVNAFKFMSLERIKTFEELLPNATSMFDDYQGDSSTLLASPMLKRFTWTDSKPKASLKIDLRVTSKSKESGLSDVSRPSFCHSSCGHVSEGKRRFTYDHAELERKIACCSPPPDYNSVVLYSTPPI
TrkB, sequence (Q16620 32-822, species assumed): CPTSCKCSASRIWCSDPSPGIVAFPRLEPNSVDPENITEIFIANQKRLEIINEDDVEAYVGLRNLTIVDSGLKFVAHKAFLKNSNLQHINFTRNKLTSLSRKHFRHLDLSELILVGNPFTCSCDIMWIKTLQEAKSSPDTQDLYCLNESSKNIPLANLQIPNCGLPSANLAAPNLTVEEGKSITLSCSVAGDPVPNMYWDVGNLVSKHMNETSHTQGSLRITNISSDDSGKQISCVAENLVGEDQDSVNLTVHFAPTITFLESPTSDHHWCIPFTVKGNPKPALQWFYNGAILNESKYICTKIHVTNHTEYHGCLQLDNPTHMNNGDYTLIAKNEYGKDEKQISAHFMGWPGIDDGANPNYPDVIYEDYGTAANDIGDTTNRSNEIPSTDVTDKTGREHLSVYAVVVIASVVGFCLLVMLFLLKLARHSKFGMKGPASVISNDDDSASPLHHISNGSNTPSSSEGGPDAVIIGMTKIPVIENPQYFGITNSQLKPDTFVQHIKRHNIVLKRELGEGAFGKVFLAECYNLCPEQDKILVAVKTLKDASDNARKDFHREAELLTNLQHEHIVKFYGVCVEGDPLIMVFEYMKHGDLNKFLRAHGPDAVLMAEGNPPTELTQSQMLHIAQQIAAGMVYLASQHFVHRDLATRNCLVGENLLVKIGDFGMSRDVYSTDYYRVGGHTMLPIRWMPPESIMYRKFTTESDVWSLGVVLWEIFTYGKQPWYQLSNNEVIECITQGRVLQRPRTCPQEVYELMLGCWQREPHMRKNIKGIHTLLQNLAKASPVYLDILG

In the case of `Cc1c[nH]c2nc(Nc3ccc(N4CCN(C)CC4)c(F)c3)nc(-c3cccc(CC#N)c3)c12` [SGI-7079], the “Inhibition of MER” value in assay [1] was “similarly as AXL”. Moreover, in assay [2], the “Inhibition of TrkB” value was “potent, low nM inhibition”. For the same compound, in assay [3], the “Inhibition of Flt1” value is reported as “potent, low nM inhibition”. In assay [4], the “Inhibition of Jak2” value is “potent, low nM inhibition”. Also, the half-inhibitory concentration (IC50) in assay [5] was found to be 2440 nM; in assay [6], 4290 nM; in [7] it was 920 nM; in assay [8], 740 nM; in assay [9] it was 1740 nM; in [10], 2010 nM. Moreover, the figures for the IC50 in [12] (read-out: IC50 range across cell lines) and in assay [12] (read-out: Mean IC50 across cell lines) were 740 to 4290 nM and 1300 nM, respectively. Also, the EC50 in assay [11] worked out at 100 nM.

As usually defined, the IC50 is the midpoint of a concentration-inhibition curve. For orientation: EC50 means the concentration needed to bring the measured effect to its halfway point.
